# Measurements published in patent US8551999B2, “Heterocyclic compound and pharmaceutical composition thereof” (Otsuka Pharmaceutical Co., Ltd., priority 2007, dated 2013).
row,melting point,SMILES
1,161 to 163 °C,"COc1ccc(CN2CCN(C(=O)c3cc4cc(Oc5ccc(NC(=O)c6ccc(C(F)(F)F)cc6)cn5)ccc4n3C)[C@H](C)C2)cc1.O=C(O)C(=O)O [Example 393, N-(6-{2-[(R)-4-(4-Methoxybenzyl)-2-methylpiperazine-1-carbonyl]-1-methyl-1H-indol-5-yloxy}pyridin-3-yl)-4-trifluoromethyl-benzamide oxalate]"
2,159 to 160 °C,"COc1ccc(CN2CCN(C(=O)c3cc4cc(Oc5ccc(NC(=O)c6ccc(C(F)(F)F)cc6)cn5)ccc4n3C)[C@@H](C)C2)cc1.O=C(O)C(=O)O [Example 396, N-(6-{2-[(S)-4-(4-Methoxybenzyl)-2-methylpiperazine-1-carbonyl]-1-methyl-1H-indol-5-yloxy}pyridin-3-yl)-4-trifluoromethyl-benzamide oxalate]"
3,126 to 127 °C,"C[C@H]1CN(Cc2ccccn2)CCN1C(=O)c1cc2cc(Oc3ccc(NC(=O)c4ccc(C(F)(F)F)cc4)cn3)ccc2n1C.O=C(O)C(=O)O.O=C(O)C(=O)O [Example 397, N-{6-[1-Methyl-2-((S)-2-methyl-4-pyridin-2-ylmethylpiperazine-1-carbonyl)-1H-indol-5-yloxy]pyridin-3-yl}-4-trifluoromethyl-benzamide dioxalate]"
4,229 to 231 °C,"Br.Cn1c(C(=O)N2CCN(Cc3ccc(OC(F)F)cc3)CC2)cc2cc(Oc3ccc(NC(=O)c4ccc(C(F)(F)F)cc4)cn3)ccc21 [Example 400, N-(6-{2-[4-(4-Difluoromethoxybenzyl)piperazine-1-carbonyl]-1-methyl-1H-indol-5-yloxy}pyridin-3-yl)-4-trifluoromethylbenzamide hydrobromide]"
5,255 to 257 °C,"Br.Cn1c(C(=O)N2CCN(Cc3ccc(OC(F)(F)C(F)F)cc3)CC2)cc2cc(Oc3ccc(NC(=O)c4ccc(C(F)(F)F)cc4)cn3)ccc21 [Example 402, N-[6-(1-Methyl-2-{4-[4-(1,1,2,2-tetrafluoroethoxy)benzyl]-piperazine-1-carbonyl}-1H-indol-5-yloxy)pyridin-3-yl]-4-tri-fluoromethylbenzamide hydrobromide]"
6,215 to 217 °C,"Br.Br.Cc1cc(Oc2ccc3c(c2)cc(C(=O)N2CCN(Cc4cccnc4)CC2)n3C)ncc1NC(=O)c1ccc(C(F)(F)F)cc1 [Example 404, N-{4-Methyl-6-[1-methyl-2-(4-pyridin-3-ylmethylpiperazine-1-carbonyl)-1H-indol-5-yloxy]pyridin-3-yl}-4-trifluoromethyl-benzamide dihydrobromide]"
7,241 to 245 °C,"Br.Cn1c(C(=O)N2CCN(Cc3ccc(OCC(F)F)cc3)CC2)cc2cc(Oc3ccc(NC(=O)c4ccc(Cl)c(Cl)c4)cn3)ccc21 [Example 407, 3,4-Dichloro-N-[6-(2-{4-[4-(2,2-difluoroethoxy)benzyl]piperazine-1-carbonyl}-1-methyl-1H-indol-5-yloxy)pyridin-3-yl]benzamide hydrobromide]"
8,152 to 154 °C,"CN(C(=O)c1ccc(C(F)(F)F)cc1)c1ccc(Oc2ccc3c(c2)cc(C(=O)N2CCN(Cc4ccc(OCCF)cc4)CC2)n3C)nc1.O=C(O)/C=C\C(=O)O [Example 408, N-[6-(2-{4-[4-(2-Fluoroethoxy)benzyl]piperazine-1-carbonyl}-1-methyl-1H-indol-5-yloxy)pyridin-3-yl]-N-methyl-4-trifluoromethyl-benzamide maleate]"
9,240 to 243 °C,"Br.Cn1c(C(=O)N2CCN(Cc3ccc(OCCF)cc3)CC2)cc2cc(Oc3ccc(NC(=O)c4ccc(Cl)c(Cl)c4)cn3)ccc21 [Example 409, 3,4-Dichloro-N-[6-(2-{4-[4-(2-fluoroethoxy)benzyl]piperazine-1-carbonyl}-1-methyl-1H-indol-5-yloxy)pyridin-3-yl]benzamide hydrobromide]"
10,140 to 142 °C,"CC(C)Oc1ccc(CN2CCN(C(=O)c3cc4cc(Oc5ccc(N(C)C(=O)c6ccc(C(F)(F)F)cc6)cn5)ccc4n3C)CC2)cc1.O=C(O)/C=C\C(=O)O [Example 410, N-(6-{2-[4-(4-Isopropoxybenzyl)piperazine-1-carbonyl]-1-methyl-1H-indol-5-yloxy}pyridin-3-yl)-N-methyl-4-trifluoromethyl-benzamide maleate]"
11,132 to 134 °C,"CCCc1ccc(CN2CCN(C(=O)c3cc4cc(Oc5ccc(N(C)C(=O)c6ccc(C(F)(F)F)cc6)cn5)ccc4n3C)CC2)cc1.O=C(O)/C=C\C(=O)O [Example 411, N-Methyl-N-(6-{1-methyl-2-[4-(4-propylbenzyl)piperazine-1-carbonyl]-1H-indol-5-yloxy}pyridin-3-yl)-4-trifluoromethyl-benzamide maleate]"
12,129 to 131 °C,"CC(C)c1ccc(CN2CCN(C(=O)c3cc4cc(Oc5ccc(N(C)C(=O)c6ccc(C(F)(F)F)cc6)cn5)ccc4n3C)CC2)cc1.O=C(O)/C=C\C(=O)O [Example 412, N-(6-{2-[4-(4-Isopropylbenzyl)piperazine-1-carbonyl]-1-methyl-1H-indol-5-yloxy}pyridin-3-yl)-N-methyl-4-trifluoromethylbenzamide maleate]"
13,144 to 147 °C,"CCCOc1ccc(CN2CCN(C(=O)c3cc4cc(Oc5ccc(N(C)C(=O)c6ccc(C(F)(F)F)cc6)cn5)ccc4n3C)CC2)cc1.O=C(O)/C=C\C(=O)O [Example 413, N-Methyl-N-(6-{1-methyl-2-[4-(4-propoxybenzyl)piperazine-1-carbonyl]-1H-indol-5-yloxy}pyridin-3-yl)-4-trifluoromethyl-benzamide maleate]"
14,125 to 126 °C,"CCCCCCCCOc1ccc(CN2CCN(C(=O)c3cc4cc(Oc5ccc(N(C)C(=O)c6ccc(C(F)(F)F)cc6)cn5)ccc4n3C)CC2)cc1.O=C(O)/C=C\C(=O)O [Example 414, N-Methyl-N-(6-{1-methyl-2-[4-(4-octyloxybenzyl)piperazine-1-carbonyl]-1H-indol-5-yloxy}pyridin-3-yl)-4-trifluoromethyl-benzamide maleate]"
15,137 to 139 °C,"COCc1ccc(CN2CCN(C(=O)c3cc4cc(Oc5ccc(N(C)C(=O)c6ccc(C(F)(F)F)cc6)cn5)ccc4n3C)CC2)cc1.O=C(O)/C=C\C(=O)O [Example 415, N-(6-{2-[4-(4-Methoxymethylbenzyl)piperazine-1-carbonyl]-1-methyl-1H-indol-5-yloxy}pyridin-3-yl)-N-methyl-4-trifluoromethyl-benzamide maleate]"
16,147 to 149 °C,"CC(C)Cc1ccc(CN2CCN(C(=O)c3cc4cc(Oc5ccc(N(C)C(=O)c6ccc(C(F)(F)F)cc6)cn5)ccc4n3C)CC2)cc1.O=C(O)/C=C\C(=O)O [Example 416, N-(6-{2-[4-(4-Isobutylbenzyl)piperazine-1-carbonyl]-1-methyl-1H-indol-5-yloxy}pyridin-3-yl)-N-methyl-4-trifluoromethylbenzamide maleate]"
17,234 to 236 °C,"Br.CCOc1cccc(CN2CCN(C(=O)c3cc4ccc(Oc5ccc(N(C)C(=O)c6ccc(C(F)(F)F)cc6)cn5)cc4n3C)CC2)c1 [Example 418, N-(6-{2-[4-(3-Ethoxybenzyl)piperazine-1-carbonyl]-1-methyl-1H-indol-6-yloxy}pyridin-3-yl)-N-methyl-4-trifluoromethylbenzamide hydrobromide]"
